# pIC50: −log10 of the molar value.
# Molecular target: PAFR (Homo sapiens, UniProt P25105)
# Experiment: PAF Binding Assay (PAFR binding)
# PAFR, sequence (P25105 whole entry): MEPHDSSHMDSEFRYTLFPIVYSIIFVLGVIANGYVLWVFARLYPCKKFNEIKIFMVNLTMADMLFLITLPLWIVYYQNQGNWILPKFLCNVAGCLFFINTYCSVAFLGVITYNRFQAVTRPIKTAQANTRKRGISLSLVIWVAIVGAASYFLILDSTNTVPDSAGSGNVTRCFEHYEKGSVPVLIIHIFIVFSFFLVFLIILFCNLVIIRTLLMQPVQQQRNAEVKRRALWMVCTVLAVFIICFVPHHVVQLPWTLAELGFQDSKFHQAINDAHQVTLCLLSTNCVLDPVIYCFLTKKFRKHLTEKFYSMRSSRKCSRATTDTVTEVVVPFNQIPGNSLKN
row,SMILES,pIC50
1,"CCc1cc(-c2ccn3nccc3n2)ccc1S(=O)(=O)N[C@H]1CCC[C@@H](n2cnnc2)C1 [Compound 2Aav, 2-ethyl-4-pyrazolo[1,5-a]pyrimidin-5-yl-N-[(1S,3R)-3-(4H-1,2,4-triazol-4-yl)cyclohexyl]benzenesulfonamide]",8.01
2,"CCc1cc(-c2nccs2)ccc1S(=O)(=O)N[C@H]1CCC[C@@H](n2cnnc2)C1 [Compound 2Aaw, 2-ethyl-4-(1,3-thiazol-2-yl)-N-[(1S,3R)-3-(4H-1,2,4-triazol-4-yl)cyclohexyl]benzenesulfonamide]",7.35
3,"CCc1cc(-c2cncs2)ccc1S(=O)(=O)N[C@H]1CCC[C@@H](n2cnnc2)C1 [Compound 2Aax, 2-ethyl-4-(1,3-thiazol-5-yl)-N-[(1S,3R)-3-(4H-1,2,4-triazol-4-yl)cyclohexyl]benzenesulfonamide]",6.69
4,"CCc1cc(-c2cscn2)ccc1S(=O)(=O)N[C@H]1CCC[C@@H](n2cnnc2)C1 [Compound 2Aay, 2-ethyl-4-(1,3-thiazol-4-yl)-N-[(1S,3R)-3-(4H-1,2,4-triazol-4-yl)cyclohexyl]benzenesulfonamide]",7.16
5,"CCc1cc(-c2ncns2)ccc1S(=O)(=O)N[C@H]1CCC[C@@H](n2cnnc2)C1 [Compound 2Aaz, 2-ethyl-4-(1,2,4-thiadiazol-5-yl)-N-[(1S,3R)-3-(4H-1,2,4-triazol-4-yl)cyclohexyl]benzenesulfonamide]",6.41
6,"CCc1cc(-c2noc(C3CC3)n2)ccc1S(=O)(=O)N[C@H]1CCC[C@@H](n2cnnc2C2CC2)C1 [Compound 2Ab, 4-(5-cyclopropyl-1,2,4-oxadiazol-3-yl)-2-ethyl-N-[(1S,3R)-3-(3-cycloropyl-4H-1,2,4-triazol-4-yl)cyclohexyl]benzenesulfonamide]",8.49
7,"CCc1cc(-c2ncc(COC)s2)ccc1S(=O)(=O)N[C@H]1CCC[C@@H](n2cnnc2)C1 [Compound 2Aba, 2-ethyl-4-[5-(methoxymethyl)-1,3-thiazol-2-yl]-N-[(1S,3R)-3-(4H-1,2,4-triazol-4-yl)cyclohexyl]benzenesulfonamide]",7.39
8,"CCc1cc(-c2noc(C3CC3)n2)ccc1S(=O)(=O)N[C@H]1CCC[C@@H](n2cnnc2C)C1 [Compound 2Abb, 4-(5-cyclopropyl-1,2,4-oxadiazol-3-yl)-2-ethyl-N-[(1S,3R)-3-(3-methyl-4H-1,2,4-triazol-4-yl)cyclohexyl]benzenesulfonamide]",8.70
9,"CCc1cc(-c2ccc(OC(C)C)nc2)ccc1S(=O)(=O)N[C@H]1CCC[C@@H](n2cnnc2C)C1 [Compound 2Abc, 2-ethyl-4-(6-isopropoxypyridin-3-yl)-N-[(1S,3R)-3-(3-methyl-4H-1,2,4-triazol-4-yl)cyclohexyl]benzenesulfonamide]",9.30
10,"CCc1cc(-c2ccc(OC(F)(F)F)cc2)ccc1S(=O)(=O)N[C@H]1CCC[C@@H](n2cnnc2C)C1 [Compound 2Abd, 3-ethyl-N-[(1S,3R)-3-(3-methyl-4H-1,2,4-triazol-4-yl)cyclohexyl]-4′-(trifluoromethoxy)biphenyl-4-sulfonamide]",8.66
11,"CCc1cc(-c2ccc(OCC(F)(F)F)nc2)ccc1S(=O)(=O)N[C@H]1CCC[C@@H](n2cnnc2C)C1 [Compound 2Abe, 2-ethyl-N-[(1S,3R)-3-(3-methyl-4H-1,2,4-triazol-4-yl)cyclohexyl]-4-[6-(2,2,2-trifluoroethoxy)pyridin-3-yl]benzenesulfonamide]",9.70
12,"CCc1cc(-c2ccc(OC(F)(F)F)c(F)c2)ccc1S(=O)(=O)N[C@H]1CCC[C@@H](n2cnnc2C)C1 [Compound 2Abf, 3-ethyl-3′-fluoro-N-[(1S,3R)-3-(3-methyl-4H-1,2,4-triazol-4-yl)cyclohexyl]-4′-(trifluoromethoxy)biphenyl-4-sulfonamide]",8.57
13,"CCc1cc(OCCCC(F)(F)F)ccc1S(=O)(=O)N[C@H]1CCC[C@@H](n2cnnc2)C1 [Compound 2Abi, 2-ethyl-N-[(1S,3R)-3-(4H-1,2,4-triazol-4-yl)cyclohexyl]-4-(4,4,4-trifluorobutoxy)benzenesulfonamide]",8.57
14,"CCc1cc(OCCCC(F)(F)F)ccc1S(=O)(=O)N[C@H]1CCC[C@@H](n2cnnc2C)C1 [Compound 2Abj, 2-ethyl-N-[(1S,3R)-3-(3-methyl-4H-1,2,4-triazol-4-yl)cyclohexyl]-4-(4,4,4-trifluorobutoxy)benzenesulfonamide]",8.57
15,"CCc1cc(OCCC(F)(F)F)ccc1S(=O)(=O)N[C@H]1CCC[C@@H](n2cnnc2)C1 [Compound 2Abk, 2-ethyl-N-[(1S,3R)-3-(4H-1,2,4-triazol-4-yl)cyclohexyl]-4-(3,3,3-trifluoropropoxy)benzenesulfonamide]",7.66
16,"CCc1cc(-c2ccc(OC(F)(F)F)cc2C)ccc1S(=O)(=O)N[C@H]1CCC[C@@H](n2cnnc2)C1 [Compound 2Abl, 3-ethyl-2′-methyl-N-[(1S,3R)-3-(4H-1,2,4-triazol-4-yl)cyclohexyl]-4′-(trifluoromethoxy)biphenyl-4-sulfonamide]",7.52
17,"CCc1cc(-c2ccc(C(F)(F)F)cc2C(F)(F)F)ccc1S(=O)(=O)N[C@H]1CCC[C@@H](n2cnnc2)C1 [Compound 2Abm, 3-ethyl-N-[(1S,3R)-3-(4H-1,2,4-triazol-4-yl)cyclohexyl]-2′,4′-bis(trifluoromethyl)biphenyl-4-sulfonamide]",7.08
18,"CCc1cc(-c2ccc(C(F)(F)F)cc2C)ccc1S(=O)(=O)N[C@H]1CCC[C@@H](n2cnnc2)C1 [Compound 2Abn, 3-ethyl-2′-methyl-N-[(1S,3R)-3-(4H-1,2,4-triazol-4-yl)cyclohexyl]-4′-(trifluoromethyl)biphenyl-4-sulfonamide]",7.66
19,"CCc1cc(-c2cc(C(F)(F)F)cc(C(F)(F)F)c2)ccc1S(=O)(=O)N[C@H]1CCC[C@@H](n2cnnc2)C1 [Compound 2Abo, 3-ethyl-N-[(1S,3R)-3-(4H-1,2,4-triazol-4-yl)cyclohexyl]-3′,5′-bis(trifluoromethyl)biphenyl-4-sulfonamide]",7.89
20,"CCc1cc([N+](=O)[O-])ccc1S(=O)(=O)N[C@H]1CCC[C@@H](n2cnnc2)C1 [Compound 2Ae, 2-ethyl-4-nitro-N-[(1S,3R)-3-(4H-1,2,4-triazol-4-yl)cyclohexyl]benzenesulfonamide]",6.42
21,"CCc1cc(-c2ccc(OC)nc2)ccc1S(=O)(=O)N[C@H]1CCC[C@@H](n2cnnc2)C1 [Compound 2Ag, 2-ethyl-4-(6-methoxypyridin-3-yl)-N-[(1S,3R)-3-(4H-1,2,4-triazol-4-yl)cyclohexyl]benzenesulfonamide]",8.00
22,"CCc1cc(-c2ccc(C#N)nc2)ccc1S(=O)(=O)N[C@H]1CCC[C@@H](n2cnnc2)C1 [Compound 2Ah, 4-(6-cyanopyridin-3-yl)-2-ethyl-N-[(1S,3R)-3-(4H-1,2,4-triazol-4-yl)cyclohexyl]benzenesulfonamide]",6.24
23,"CCc1cc(-c2ccc(C)nc2)ccc1S(=O)(=O)N[C@H]1CCC[C@@H](n2cnnc2)C1 [Compound 2Ai, 2-ethyl-4-(6-methylpyridin-3-yl)-N-[(1S,3R)-3-(4H-1,2,4-triazol-4-yl)cyclohexyl]benzenesulfonamide]",6.92
24,"CCc1cc(-c2cnc(N)nc2)ccc1S(=O)(=O)N[C@H]1CCC[C@@H](n2cnnc2)C1 [Compound 2Aj, 4-(2-aminopyrimidin-5-yl)-2-ethyl-N-[(1S,3R)-3-(4H-1,2,4-triazol-4-yl)cyclohexyl]benzenesulfonamide]",5.97

# Source: patent publication US9029377B2, “Platelet-activating factor receptor antagonists” (Merck Sharp & Dohme Corp., priority 2009, dated 2015)
